Assay results as given in patent US20120164154A1, “METHOD FOR INCREASING INSULIN SENSITIVITY AND FOR TREATING AND PREVENTING TYPE 2 DIABETES” (priority 2002, published 2012).

Key:
Insulin tolerance test = format: in vivo; conditions: SCD1-/- mice compared with wild-type mice
Excerpt: Animals and Diets. SCD1−/− mice in SV129 background were generated and genotyped as described in Miyazaki, M. et al. (2001) J. Nutr. 131, 2260-2268. The wild-type (SCD1+/+), heterozygous (SCD1+/−) and homozygous (SCD1−/−) mice are housed and bred in a pathogen-free barrier facility of the Department of Biochemistry (University of Wisconsin, Madison) operating at room temperature in a 12-h light/12-h dark cycle. The breeding of these animals was in accordance with the protocols approved by the animal care research committee of the University of Wisconsin. At 3 weeks of age, the mice were fed ad libitum a standard laboratory chow diet or a high-fat diet for 23 weeks. The high-fat diet contains 195 g/kg casein, 3 g/kg DL-methionine, 377 g/kg sucrose, 150 g/kg corn starch, 153 g/kg anhydrous milkfat, 10 g/kg corn oil, 1.5 g/kg cholesterol, 60.067 g/kg cellulose, 35 g/kg mineral mix AIN-76 (170915), 4 g/kg calcium carbonate, 10 g/kg vitamin mix Teklad (40060), 1.2 g/kg choline bitartrate, and 0.033 g/kg ethoxyquin (antioxidant). The weight of each mouse within each group was measured weekly; the data are presented as means±SD (n=8, P<0.001). The glucose tolerance and insulin tolerance were determined as described in Stoehr, J. P. et al. (2000) Diabetes 49, 1946-1954.

isolated soleus muscle = test: Basal and insulin-stimulated 2-deoxyglucose uptake in isolated soleus muscle; design: species or system mice; conditions: 0.1 m-unit of insulin/ml, 2 h preincubation, 2-deoxyglucose uptake 15 min
Experimental: (A) Representative immunoblot of GLUT4 protein expression along with combined densitometric analysis. Muscle from 3 SCD1+/+ and 3 SCD1−/− mice were pooled. Plasma membranes were prepared as described in Example 1. Equal amount of protein was separated by SDS-PAGE and immunoblotted with GLUT4 antibody. Experiment was repeated three times. Data are shown as means±SD. *P<0.05 vs controls. Nitrocellulose membrane was stripped and reprobed with GAPDH antibody to ensure equal loading of the protein. (B) Glucose uptake measured in vivo in soleus and gastrocnemius muscles. […] The 2-deoxyglucose uptake was calculated as the difference between the total muscle radioactivity and the radioactivity of the muscle extracellular space measured using [1-^3H] mannitol. […]
Determination of plasma membrane GLUT4 levels, glucose uptake and glucose oxidation. Muscle plasma membranes were prepared from muscle of SCD1−/− and SCD1+/+ mice and GLUT4 levels were determined as described in Agote, M. et al. (2001) Am. […] The scintillation cocktail was added and radioactivity was counted in a liquid scintillation counter. The 2-deoxyglucose (2-DG) uptake was calculated as the difference between the total muscle radioactivity and the radioactivity of the muscle extracellular space. […] Glucose oxidation was determined in thin slices (20-30 mg) of gastrocnemius muscle as described in Baque, S. et al. (2001) Am. […]

Question: For insulin, which “glucose lowering effect of insulin” value (Insulin tolerance test) is on record?
Answer: greater in the SCD1−/− mice than wild-type mice

Question: What about the “insulin-mediated glucose uptake (fold)” value (isolated soleus muscle; isolated soleus muscle from SCD1+/+ mice) of the same substance?
Answer: 1.6 fold

Question: And the “insulin-mediated glucose uptake (fold)” value (isolated soleus muscle; isolated soleus muscle from SCD1-/- mice)?
Answer: 2.1 fold
